Experimental data as given in PubChem BioAssay AID256 (DTP/NCI, 2004).
Values joined by “and” are separate entries in the source; they are usually repeats but may differ in a detail not shown here. Equal values may be shown once. Inconclusive results and toxic doses are left out. Rule for the calls: active = survival T/C of 150% or more; inactive = T/C below 125% in these data.

Tested on: CD2F1 mice, L1210 leukemia ip, survival T/C
Assay: NCI In Vivo Anticancer Drug Screen. Data for tumor model L1210 Leukemia (intraperitoneal) in CD2F1 (CDF1) mice
Settings: higher = longer survival
Outline: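 Implant tumor; dose compound or vehicle; measure endpoint in both groups; report treated divided by control.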

[1] = endpoint: mean survival time, dose: 100.0 mg/kg/injection, schedule: Q01DX001 (ip), vehicle: saline
[2] = endpoint: mean survival time, dose: 200.0 mg/kg/injection, schedule: Q01DX001 (ip), vehicle: saline
[3] = endpoint: mean survival time, dose: 400.0 mg/kg/injection, schedule: Q01DX001 (ip), vehicle: saline
[4] = endpoint: mean survival time, dose: 12.5 mg/kg/injection, schedule: Q04DX002 (ip), vehicle: saline with Tween-80
[5] = endpoint: mean survival time, dose: 100.0 mg/kg/injection, schedule: Q04DX003 (ip), vehicle: saline with Tween-80
[6] = endpoint: mean survival time, dose: 200.0 mg/kg/injection, schedule: Q04DX003 (ip), vehicle: saline with Tween-80
[7] = endpoint: mean survival time, dose: 400.0 mg/kg/injection, schedule: Q04DX003 (ip), vehicle: saline with Tween-80
[8] = endpoint: mean survival time, dose: 50.0 mg/kg/injection, schedule: Q01DX009 (ip), vehicle: saline
[9] = endpoint: mean survival time, dose: 100.0 mg/kg/injection, schedule: Q01DX009 (ip), vehicle: saline
[10] = endpoint: mean survival time, dose: 200.0 mg/kg/injection, schedule: Q01DX009 (ip), vehicle: saline
[11] = endpoint: mean survival time, dose: 100.0 mg/kg/injection, schedule: Q01DX001 (ip), vehicle: other
[12] = endpoint: mean survival time, dose: 50.0 mg/kg/injection, schedule: Q01DX009 (ip), vehicle: saline with Tween-80
[13] = endpoint: mean survival time, dose: 100.0 mg/kg/injection, schedule: Q01DX009 (ip), vehicle: saline with Tween-80
[14] = endpoint: mean survival time, dose: 200.0 mg/kg/injection, schedule: Q01DX009 (ip), vehicle: saline with Tween-80
[15] = endpoint: mean survival time, dose: 400.0 mg/kg/injection, schedule: Q01DX009 (ip), vehicle: saline with Tween-80
[16] = endpoint: mean survival time, dose: 12.5 mg/kg/injection, schedule: Q04DX003 (ip), vehicle: saline
[17] = endpoint: mean survival time, dose: 25.0 mg/kg/injection, schedule: Q04DX003 (ip), vehicle: saline
[18] = endpoint: mean survival time, dose: 50.0 mg/kg/injection, schedule: Q04DX003 (ip), vehicle: saline

Measured: T/C

Cn1nc(C#N)c2ccccc21
inactive: [1] 100 % of control | [2] 102 % of control | [3] 103 % of control

O=S(=O)(F)c1ccc(C[P+](c2ccccc2)(c2ccccc2)c2ccccc2)c(Cl)c1
inactive: endpoint: mean survival time, dose: 18.8 mg/kg/injection, schedule: Q01DX009 (ip), vehicle: saline 103 % of control | endpoint: mean survival time, dose: 18.8 mg/kg/injection, schedule: Q04DX003 (ip), vehicle: saline 114 % of control | endpoint: mean survival time, dose: 37.5 mg/kg/injection, schedule: Q01DX009 (ip), vehicle: saline 100 % of control | endpoint: mean survival time, dose: 37.5 mg/kg/injection, schedule: Q04DX003 (ip), vehicle: saline 116 % of control | endpoint: mean survival time, dose: 75.0 mg/kg/injection, schedule: Q01DX001 (ip), vehicle: saline 103 % of control | endpoint: mean survival time, dose: 75.0 mg/kg/injection, schedule: Q04DX003 (ip), vehicle: saline 112 % of control

COc1ccc(C(=O)C(Br)Br)cc1OC
inactive: endpoint: mean survival time, dose: 3.13 mg/kg/injection, schedule: Q04DX002 (ip), vehicle: saline with Tween-80 112 % of control | endpoint: mean survival time, dose: 6.25 mg/kg/injection, schedule: Q04DX002 (ip), vehicle: saline with Tween-80 100 % of control | [4] 100 % of control

O=S(=O)(Nc1ccccn1)c1ccc(Cl)cc1
inactive: [5] 91 % of control | [6] 95 % of control | [7] 90 % of control

CCN1/C(=C\c2ccc3cc(C)ccc3[n+]2CC)[Se]c2ccccc21
inactive: endpoint: mean survival time, dose: 1.25 mg/kg/injection, schedule: Q01DX001 (ip), vehicle: other 105 % of control | endpoint: mean survival time, dose: 2.5 mg/kg/injection, schedule: Q01DX001 (ip), vehicle: other 101 % of control | endpoint: mean survival time, dose: 5.0 mg/kg/injection, schedule: Q01DX001 (ip), vehicle: other 106 % of control

COC(=O)c1ccc(NCC(=N)N)cc1
inactive: [8] 100 % of control | [9] 122 % of control | [10] 100 % of control

C[Si](c1ccccc1)c1ccccc1
inactive: [11] 97 % of control | endpoint: mean survival time, dose: 200.0 mg/kg/injection, schedule: Q01DX001 (ip), vehicle: other 100 % of control | endpoint: mean survival time, dose: 400.0 mg/kg/injection, schedule: Q01DX001 (ip), vehicle: other 100 % of control

O=C(O)C(NC1CCCCC1)c1ccccc1 (centres undefined)
inactive: [12] 95 % of control | [13] 103 % of control | [5] 92 % of control | [14] 92 % of control | [6] 93 % of control

Cc1nc(N)nc(N)c1CCCOc1ccc(NC(=O)c2cccc(S(=O)(=O)F)c2)cc1
inactive: endpoint: mean survival time, dose: 12.5 mg/kg/injection, schedule: Q01DX009 (ip), vehicle: saline 101 % of control | endpoint: mean survival time, dose: 25.0 mg/kg/injection, schedule: Q01DX009 (ip), vehicle: saline 107 % of control | [8] 107 % of control | [9] 109 % of control | endpoint: mean survival time, dose: 100.0 mg/kg/injection, schedule: Q#A X018 (ip), vehicle: saline 90 % of control | [10] 107 % of control

O=C1OC(CBr)CC1(c1ccccc1)c1ccccc1 (centres undefined)
inactive: endpoint: mean survival time, dose: 100.0 mg/kg/injection, schedule: Q01DX001 (ip), vehicle: saline with Tween-80 95 % of control | [13] 102 % of control | endpoint: mean survival time, dose: 200.0 mg/kg/injection, schedule: Q01DX001 (ip), vehicle: saline with Tween-80 100 % of control | [14] 100 % of control | endpoint: mean survival time, dose: 400.0 mg/kg/injection, schedule: Q01DX001 (ip), vehicle: saline with Tween-80 100 % of control | [15] 102 % of control

CC(C)C(S(=O)(=O)c1ccccc1)S(=O)(=O)c1ccccc1
inactive: [1] 105 % of control | [2] 103 % of control | [3] 96 % of control

NC(=O)c1cc2c3ccccc3ncc2c2ccccc12
inactive: [5] 101 % of control | [6] 97 % of control | [7] 94 % of control

O=C(CC(O)(C(F)(F)F)C(F)(F)F)C(Cl)C(O)(C(F)(F)F)C(F)(F)F (centres undefined)
inactive: [11] 102 % of control

CC(=O)NC(C=O)OCC=O (centres undefined)
inactive: endpoint: median survival time, dose: 6.0 mg/kg/injection, schedule: Q01DX009 (ip), vehicle: water 100 % of control | endpoint: median survival time, dose: 6.25 mg/kg/injection, schedule: Q01DX009 (ip), vehicle: water 105 % of control | endpoint: median survival time, dose: 12.0 mg/kg/injection, schedule: Q01DX009 (ip), vehicle: water 103 % of control | endpoint: median survival time, dose: 12.5 mg/kg/injection, schedule: Q01DX009 (ip), vehicle: water 105 % of control | endpoint: median survival time, dose: 25.0 mg/kg/injection, schedule: Q01DX009 (ip), vehicle: water 105 % of control and 108 % of control | endpoint: median survival time, dose: 50.0 mg/kg/injection, schedule: Q01DX009 (ip), vehicle: water 102 % of control and 108 % of control | endpoint: median survival time, dose: 100.0 mg/kg/injection, schedule: Q01DX009 (ip), vehicle: water 116 % of control and 111 % of control | endpoint: median survival time, dose: 200.0 mg/kg/injection, schedule: Q01DX009 (ip), vehicle: water 115 % of control and 108 % of control

O=C1c2ccccc2-c2ccc(-c3ccc4c5c(cccc35)C(=O)c3ccccc3-4)c3cccc1c23
inactive: [5] 97 % of control | [6] 97 % of control | [7] 86 % of control

COc1ccc(OC)c(C(=O)C[n+]2ccccc2)c1
inactive: endpoint: mean survival time, dose: 12.5 mg/kg/injection, schedule: Q01DX009 (ip), vehicle: saline with Tween-80 101 % of control | [16] 106 % of control | endpoint: mean survival time, dose: 25.0 mg/kg/injection, schedule: Q01DX009 (ip), vehicle: saline with Tween-80 103 % of control | [17] 109 % of control | [12] 100 % of control | [18] 111 % of control

O=S(=O)([O-])O.O=S(O)S(=O)O.[Co+3].[NH2-].[NH2-].[NH2-].[NH2-].[NH2-]
inactive: endpoint: mean survival time, dose: 100.0 mg/kg/injection, schedule: Q04DX002 (ip), vehicle: saline with Tween-80 97 % of control

Cc1cc(C)[nH]c(=S)n1.[Pd]
inactive: endpoint: mean survival time, dose: 3.12 mg/kg/injection, schedule: Q04DX003 (ip), vehicle: saline 97 % of control | endpoint: mean survival time, dose: 6.25 mg/kg/injection, schedule: Q04DX003 (ip), vehicle: saline 102 % of control | [16] 100 % of control | [17] 103 % of control | [18] 102 % of control | endpoint: mean survival time, dose: 100.0 mg/kg/injection, schedule: Q04DX003 (ip), vehicle: saline 105 % of control | endpoint: mean survival time, dose: 200.0 mg/kg/injection, schedule: Q04DX003 (ip), vehicle: saline 102 % of control

c1cc2c(c(CC3CO3)c1CC1CO1)OCCOCCOCCOCCO2 (centres undefined)
inactive: endpoint: median survival time, dose: 12.5 mg/kg/injection, schedule: Q01DX009 (ip), vehicle: saline + alcohol 112 % of control and 97 % of control and 98 % of control | endpoint: median survival time, dose: 25.0 mg/kg/injection, schedule: Q01DX009 (ip), vehicle: saline + alcohol 123 % of control and 97 % of control and 98 % of control | endpoint: median survival time, dose: 50.0 mg/kg/injection, schedule: Q01DX009 (ip), vehicle: saline + alcohol 102 % of control and 104 % of control | endpoint: median survival time, dose: 100.0 mg/kg/injection, schedule: Q01DX009 (ip), vehicle: saline + alcohol 119 % of control and 93 % of control and 110 % of control | endpoint: median survival time, dose: 200.0 mg/kg/injection, schedule: Q01DX009 (ip), vehicle: saline + alcohol 120 % of control

COCC1OC(OC)C(OC)C(OC)C1OC (centres undefined)
inactive: [13] 94 % of control | [14] 102 % of control | [15] 105 % of control

C[Si](F)(c1cccc2ccccc12)c1cccc2ccccc12
inactive: [13] 93 % of control | [14] 98 % of control | [15] 96 % of control

O=C(Nc1ccccc1C(F)(F)F)OCCOc1ccccc1Cl
inactive: endpoint: mean survival time, dose: 100.0 mg/kg/injection, schedule: Q01DX009 (ip), vehicle: Klucel (hydroxypropylcellulose) (HPC) 103 % of control | endpoint: mean survival time, dose: 400.0 mg/kg/injection, schedule: Q01DX009 (ip), vehicle: Klucel (hydroxypropylcellulose) (HPC) 89 % of control

O=[N+]([O-])c1ccc(N/N=C/C(Br)(Br)Br)c([N+](=O)[O-])c1
inactive: endpoint: mean survival time, dose: 25.0 mg/kg/injection, schedule: Q04DX003 (ip), vehicle: saline with Tween-80 102 % of control | endpoint: mean survival time, dose: 50.0 mg/kg/injection, schedule: Q04DX003 (ip), vehicle: saline with Tween-80 100 % of control

O=c1c2cccc3cccc(c32)c2c3c(nn12)CCCC3
inactive: [4] 102 % of control | endpoint: mean survival time, dose: 25.0 mg/kg/injection, schedule: Q04DX002 (ip), vehicle: saline with Tween-80 98 % of control | endpoint: mean survival time, dose: 50.0 mg/kg/injection, schedule: Q04DX002 (ip), vehicle: saline with Tween-80 94 % of control

CC1CCC(c2cc(-c3ccccc3)n(-c3ccccc3)n2)CC1 (centres undefined)
inactive: endpoint: mean survival time, dose: 100.0 mg/kg/injection, schedule: Q04DX003 (ip), vehicle: acetone 103 % of control | endpoint: mean survival time, dose: 200.0 mg/kg/injection, schedule: Q04DX003 (ip), vehicle: acetone 101 % of control | endpoint: mean survival time, dose: 400.0 mg/kg/injection, schedule: Q04DX003 (ip), vehicle: acetone 93 % of control
